Reference: patent US20230250095A1, “BENZIMIDAZOLE DERIVATIVES, PREPARATION METHOD THEREFOR AND MEDICAL USE THEREOF” (TUOJIE BIOTECH(SHANGHAI) CO., LTD., priority 2020, published 2023)

Test: In vivo pharmacokinetic experiment in rats, intragastric administration
Conditions: SD rats, 5 mg/kg
Protocol: The drug concentrations in the plasma of the test animals (rats) at different time points after intragastric administration of the compound of the present disclosure were determined by an LC/MS/MS method. The pharmacokinetic behavior in rats of the compound of the present disclosure was studied and its pharmacokinetic profile was evaluated.
Male, healthy SD rats of SPF grade, 6-8 weeks old, 3 rats in each group.
Intragastric administration: a certain amount of compound was weighed and prepared into a 1 mg/mL white suspension by adding 0.5% by volume of hydroxypropyl methylcellulose, 0.1% by volume of tween 80 and 99.4% by volume of water.
SD rats were administered intragastrically with compound 4 or BLU-5937 at a dose of 5 mg/kg after fasting overnight.
Rats were administered intragastrically with the compound of the present disclosure. 0.2 mL of blood was collected from the jugular vein at 0.25 h, 0.5 h, 1 h, 2 h, 4 h, 8 h and 24 h after the administration, placed in a tube containing EDTA-K2, separated by centrifugation at 4° C. at 4000 rpm for 5 min to obtain plasma, which was stored at −75° C.
Determination of the content of the test compounds at different concentrations in the plasma of rats after intragastric administration: 50 μL of rat plasma at each time point after the administration was taken, 200 μL of a solution of internal standard dexamethasone (50 ng/mL) in acetonitrile was added thereto, and the mixture was vortexed for 30 s to be mixed well, centrifuged at 4° C. at 4700 rpm for 15 min. The supernatant of the plasma sample was subjected to 3-fold dilution with water, and 2.0 μL of the dilution was taken for LC/MS/MS analysis.

V: 2.05 L/kg | Tmax (male, rat, plasma, po): 25.2 min | half-life (male, rat, plasma, po): 57.6 min | AUC(0-t) (male, rat, po, plasma): 408 ng·h/mL | Cmax (male, rat, po, plasma): 356 ng/mL
Structure (SMILES): CC(=O)N1CCO[C@@H](Cn2c(-c3c(F)cc(N4CCCC4=O)cc3Cl)nc3cc(C)ccc32)C1 [Compound 4, (S)-1-(4-(1-((4-acetylmorpholin-2-yl)methyl)-5-methyl-1H-benzo[d]imidazol-2-yl)-3-chloro-5-fluorophenyl)pyrrolidin-2-one]
